Measured values as given in PMC9578396, “Intrinsic Antibacterial Activity of Xeruborbactam In Vitro: Assessing Spectrum and Mode of Action” (Antimicrobial Agents and Chemotherapy, 2022).
Read-outs that look alike come from different tables or passages of the source.

Tests used:
[1] = system: A. baumannii strain ATCC 17978; experiment: Fluorescence microscopy, cellular morphology; format: cell-based, Acinetobacter baumannii; conditions: xeruborbactam, meropenem 1× and 2× MIC; aztreonam 2× MIC; amdinocillin 2 μg/mL
Method: Single colonies of K. pneumoniae strain KPM1026a, A. baumannii strain ATCC 17978, and P. aeruginosa strain PAM1154 were picked from LB agar plates, inoculated in cation-adjusted Mueller-Hinton broth (CA-MHB), and incubated overnight at 30°C with rolling. Overnight cultures were diluted into fresh CA-MHB and incubated at 30°C, with rolling, until they reached an OD600 of ≈0.12 to 0.15 (equivalent to ~2 × 10^8 CFU/mL). Samples were then treated with compounds and incubated at 30°C, with rolling. After 1 or 2 h of treatment, cells were collected and stained with a dye mix containing FM4-64 (1 μg/mL), DAPI (4′,6-diamidino-2-phenylindole) (2 μg/mL), and SYTOX green (0.5 μM) (Molecular Probes, Invitrogen, or Thermo Fisher Scientific). Cells were transferred onto an agarose pad containing 1.2% agarose and 20% LB medium for microscopy. Microscopy was performed as previously described ([34]).

[2] = system: Acinetobacter baumannii; experiment: Broth microdilution MIC (CLSI), Acinetobacter baumannii; format: cell-based; conditions: Acinetobacter baumannii
Text: (§1) (i) Panels of engineered bacterial strains containing various combinations of porin and efflux mutations were used. The construction of all the strains used in the study is described in detail in references, [44], and [45]. (ii) KPC-producing clinical isolates and their derivatives that lost KPC plasmids were used also. These strains and their origins are described in the Table S2. (iii) Finally, KPC-producing clinical isolates enriched in strains with porin mutations were used. The mutations identified include various deletions, insertions, nonsense mutations, and decreased expression. Most of the isolates were obtained from JMI Laboratories or International Health Management Associates (IHMA); they were collected in the course of global surveillance studies.
(§2) Bacterial isolates were subjected to broth microdilution susceptibility testing, performed according to Clinical and Laboratory Standards Institute (CLSI) methods ([46]), using panels prepared in-house. […] Xeruborbactam was synthesized at Qpex Biopharma, San Diego, CA. Avibactam was purchased from eNovation Chemicals LLC, Bridgewater, NJ, USA; zidebactam was from MedKoo Biosciences, Inc., Morrisville, NC, and nacubactam was from Advanced ChemBlocks, Hayward, CA. Durlobactam was synthesized at Acme Bioscience, Palo Alto, CA, USA.

[3] = system: Pseudomonas aeruginosa; experiment: Broth microdilution MIC (CLSI), Pseudomonas aeruginosa; format: cell-based
Text: as §1, §2

[4] = system: Escherichia coli; experiment: Broth microdilution MIC (CLSI), Escherichia coli; format: cell-based
Text: as §1, §2

C[C@H]1[C@H](NC(=O)/C(=N\OC(C)(C)C(=O)O)c2csc(N)n2)C(=O)N1S(=O)(=O)O [Aztreonam]
64: MIC ([4]; EC1078, PBP2 same as MG1655, PBP3 I332V) | MIC ([4]; EC1081, PBP2 same as MG1655, PBP3 Q227H) | MIC ([4]; EC1098, PBP2 V217M, PBP3 YRIN ins, I532L)
0.5 µg/mL: MIC ([3]; PAM1154 (oprM::Hg), xeruborbactam 0 µg/ml) | MIC ([3]; Pseudomonas aeruginosa, strain 1089003, alone, read-out: MIC) | MIC ([3]; Pseudomonas aeruginosa, strain 1098916, alone, read-out: MIC) | MIC ([3]; Pseudomonas aeruginosa, strain 1104284, alone, read-out: MIC) | MIC ([3]; Pseudomonas aeruginosa, strain 1109744, alone, read-out: MIC) | MIC ([3]; Pseudomonas aeruginosa, strain 1116835, alone, read-out: MIC) | MIC ([3]; Pseudomonas aeruginosa, strain 1126521, alone, read-out: MIC) | MIC ([3]; Pseudomonas aeruginosa, strain 1126982, alone, read-out: MIC)
> 64 µg/mL: MIC ([3]; Pseudomonas aeruginosa, strain 1125996, alone, read-out: MIC) | MIC ([3]; Pseudomonas aeruginosa, strain 1126957, alone, read-out: MIC) | MIC ([3]; Pseudomonas aeruginosa, strain 1130447, alone, read-out: MIC)
2: MIC ([4]; EC1085, PBP2 T331P, PBP3 A233T I332V)
32: MIC ([4]; EC1103, PBP2 same as MG1655, PBP3 YRIN ins, Q227H, E349K, I532L)
1 µg/mL: MIC ([2]; strain ACM1013, ΔadeIJK) | MIC ([2]; strain ACM1015, ΔadeIJK ΔadeABC) | MIC ([3]; Pseudomonas aeruginosa, strain 1104168, alone, read-out: MIC) | MIC ([3]; Pseudomonas aeruginosa, strain 1125954, alone, read-out: MIC) | MIC ([3]; Pseudomonas aeruginosa, strain PAM1033, nfxB (MexCD-OprJ overexpression))
16 µg/mL: MIC ([2]; AB1007, xeruborbactam 4 µg/ml, read-out: MIC) | MIC ([2]; strain ACM1014, ΔadeABC) | MIC ([2]; strain ACM1030, adeS (AdeABC overexpression)) | MIC ([3]; Pseudomonas aeruginosa, strain PAM1032, nalB (MexAB-OprM overexpression))
2 µg/mL: MIC ([3]; Pseudomonas aeruginosa, strain 1106973, alone, read-out: MIC) | MIC ([3]; Pseudomonas aeruginosa, strain 1116849, alone, read-out: MIC) | MIC ([3]; Pseudomonas aeruginosa, strain 1128636, alone, read-out: MIC)
4 µg/mL: MIC ([2]; AB1007, xeruborbactam 8 µg/ml, read-out: MIC) | MIC ([3]; Pseudomonas aeruginosa, strain 1113634, alone, read-out: MIC) | MIC ([3]; Pseudomonas aeruginosa, strain 1128674, alone, read-out: MIC) | MIC ([3]; Pseudomonas aeruginosa, strain PAM1020, wild type, read-out: MIC) | MIC ([3]; Pseudomonas aeruginosa, strain PAM1034, nfxC (MexEF-OprN overexpression))
32 µg/mL: MIC ([2]; AB1007 (no beta-lactamase), xeruborbactam 0 µg/ml, read-out: MIC) | MIC ([2]; AB1007, xeruborbactam 2 µg/ml, read-out: MIC) | MIC ([2]; ATCC17978, strain ATCC 17978 (Fig. 6), read-out: MIC) | MIC ([2]; strain AB1007, wild type, read-out: MIC) | MIC ([3]; Pseudomonas aeruginosa, strain 1113238, alone, read-out: MIC) | MIC ([3]; Pseudomonas aeruginosa, strain 1118234, alone, read-out: MIC) | MIC ([3]; Pseudomonas aeruginosa, strain 1119418, alone, read-out: MIC)
64 µg/mL: MIC ([2]; strain ACM1027, adeN (AdeIJK overexpression)) | MIC ([3]; Pseudomonas aeruginosa, strain 1097436, alone, read-out: MIC)
increase in cell length: cellular morphology [1]
0.03 µg/mL: MIC ([4]; Escherichia coli, strain ECM5497, wild type, read-out: MIC) | MIC ([4]; Escherichia coli, strain ECM6001, ΔacrB)
> 64: MIC ([4]; EC1088, PBP2 A308G, PBP3 same as MG1655) | MIC ([4]; EC1097, PBP2 M574I, PBP3 Q227H) | MIC ([4]; EC1105, PBP2 A543T, PBP3 YRIN ins, Q227H, E349K, I532L) | MIC ([4]; EC1119, PBP2 same as MG1655, PBP3 YRIN ins, Q227H, E349K, I532L) | MIC ([4]; EC1121, PBP2 V217M, PBP3 YRIN ins, E349K, I532L)
